# System: lung microvasculature
# Experiment: Micro CT scanning of lungs from the SuHx model
# Type: in vivo, rat
# Settings: SuHx rats; sildenafil treatment
# Method: Endothelial progenitor cells are reported to preserve microvasculature in MCT treated lung (Zhao et al. Cir. Res. 96:442-450 (2005)). Therefore, micro CT scanning was performed on the lungs from the SuHx model treated with Nx control, vehicle, sildenafil, and 1 million and 5 million GMP1-HE cells.
structure (smiles),measurement,value
CCCc1nn(C)c2c(=O)[nH]c(-c3cc(S(=O)(=O)N4CCN(C)CC4)ccc3OCC)nc12 [sildenafil],capillary perfusion (microCT),modest improvement

# Source: patent publication US20220280572A1, “METHODS OF TREATING VASCULAR DISEASES” (Astellas Institute for Regenerative Medicine, priority 2019, published 2022)
